Assay: RP, Waters ACQUITY UPLC HSS T3, 100 × 2.1 mm, 1.8 µm, 30 °C, 0.3 mL/min, estimated dead time 0.73 min; A: water + 0.1% formic acid, pH 3; B: methanol + 0.1% formic acid, pH 3; gradient (min/%B) 0/0 6/0 56/100 60/100
Details: stereoisomer not certain

Compound	LC retention time [min]
O=CC(O)C(O)C(O)CO (stereo not drawn) [arabinose]	1.41
CCCCCC=CCC=CCC=CCC=CCCCC(=O)O [arachidonic acid]	53.5
CC1=C(C=CC(C)O)C(C)(C)CCC1 (stereo not drawn) [b-ionol]	46.3
CCCCCCCCCCCCCCCCCCCCCC(=O)O [behenic acid]	58.7
O=C(OCc1ccccc1)c1ccccc1 [benzyl benzoate]	43.5
C[N+](C)(C)CC(=O)[O-] [betaine]	1.38
C=C(C)C1CCC2(C(=O)O)CCC3(C)C(CCC4C5(C)CCC(O)C(C)(C)C5CCC43C)C12 (stereo not drawn) [betulinic acid]	53.2
C=CC1=C(C)C(=Cc2[nH]c(Cc3[nH]c(C=C4NC(=O)C(C)=C4C=C)c(C)c3CCC(=O)O)c(CCC(=O)O)c2C)NC1=O [bilirubin]	56.4
O=C(O)CCCCC1SCC2NC(=O)NC21 (stereo not drawn) [biotin]	21.6
NCCCCCN [cadaverine]	1.1
Cn1c(=O)c2c(ncn2C)n(C)c1=O [caffeine]	20.4
CC12CCC(CC1=O)C2(C)C (stereo not drawn) [camphor]	36.5
OCC1OC(OC2C(CO)OC(O)C(O)C2O)C(O)C(O)C1O (stereo not drawn) [cellobiose]	1.55
CC(CCC(=O)O)C1CCC2C3C(O)CC4CC(O)CCC4(C)C3CCC12C (stereo not drawn) [chenodeoxycholic acid]	49.4
C=CC1CN2CCC1CC2C(O)c1ccnc2ccccc12 (stereo not drawn) [chinchonidine sulphate]	19.1
CC(C)CCCC(C)C1CCC2C3CC=C4CC(O)CCC4(C)C3CCC12C (stereo not drawn) [cholesterol]	60.2
CC(CCC(=O)O)C1CCC2C3C(O)CC4CC(O)CCC4(C)C3CC(O)C12C (stereo not drawn) [cholic acid]	46.8
C[N+](C)(C)CCO [choline]	1.4
CCCCCCCC/C=C\CCCCCCCCCC(=O)O [cis-11-eicosenoic acid]	56.2

Compound	LC retention time [min]
O=C(O)C=C(CC(=O)O)C(=O)O [cis-acotinic acid]	4.4
CC(O)(CC(=O)O)C(=O)O (stereo not drawn) [citramalic acid]	5.18
O=C(O)CC(O)(CC(=O)O)C(=O)O [citric acid]	3.91
CCCCCCCCCC(=O)O [decanoic acid]	45.6
O=C1OC(C(O)CO)C(=O)C1=O (stereo not drawn) [dehydroascorbic acid]	1.72
CC(CCC(=O)O)C1CCC2C3CCC4CC(O)CCC4(C)C3CC(O)C12C (stereo not drawn) [deoxycholic acid]	49.6
CCNCC [diethylamine]	1.68
CC(=O)C=CC1C(C)CCCC1(C)C (stereo not drawn) [dihidro alpha ionone]	46.1
CC(C)C(C)C=CC(C)C1CCC2C3=CC=C4CC(O)CCC4(C)C3CCC21C (stereo not drawn) [ergosterol]	58.9
CC1(C)CCC2(CO)CCC3(C)C(=CCC4C5(C)CCC(O)C(C)(C)C5CCC43C)C2C1 (stereo not drawn) [erythrodiol]	53.8
O=c1ccc2cc(OC3OC(CO)C(O)C(O)C3O)c(O)cc2o1 (stereo not drawn) [esculin]	17.8
CCCCCC=CCC=CCCCCCCCC(=O)OCC [ethyl linoleate]	56.1
CCCCCCCCCCCCCC(=O)OCC [ethyl tetradecanoate]	55.1
O=C(O)C=CC(=O)O [fumaric acid]	3.54
O=Cc1ccco1 [furfural]	12.2
NCCCC(=O)O [gamma-aminobutyric acid]	2.15
NC(CCC(=O)NC(CS)C(=O)O)C(=O)O (stereo not drawn) [gamma-glutamylcysteine]	3.27
COC(=O)C1=COC(O)C2C(CO)=CCC12 (stereo not drawn) [genipin]	24.2
CC(=O)CCC=C(C)CCC=C(C)C [geranyl acetone]	46.5

Results, then the molecule that gave them:

LC retention time [min]	Compound
37.1	O=c1cc(-c2ccc(O)cc2)oc2cc(O)cc(O)c12 [apigenin]
29.6	O=c1cc(-c2ccc(O)cc2)oc2cc(OC3OC(CO)C(O)C(O)C3OC3OCC(O)(CO)C3O)cc(O)c12 (stereo not drawn) [apiin]
7.61	OCC1OC(Oc2ccc(O)cc2)C(O)C(O)C1O (stereo not drawn) [arbutin]
22.7	OCC1OC(Oc2cc(O)cc(C=Cc3ccc(O)c(O)c3)c2)C(O)C(O)C1O (stereo not drawn) [astringin]
36.6	O=c1cc(-c2ccccc2)oc2cc(O)c(O)c(O)c12 [baicalein]
26.2	O=C(O)c1ccccc1 [benzoic acid]
19.6	O=C(O)c1ccc(O)cc1O [beta-resorcylic acid]
26.1	O=C1CC(c2ccc(O)c(O)c2)c2c(cc(O)c3c2OC(c2ccc(O)c(O)c2)C(O)C3)O1 (stereo not drawn) [caffeic acid+catechin condensation product]
15.5	O=C(C=Cc1ccc(O)c(O)c1)OC(C(=O)O)C(O)C(=O)O (stereo not drawn) [caftaric acid]
18	O=C(C=Cc1ccc(O)c(O)c1)OC1CC(O)(C(=O)O)CC(O)C1O (stereo not drawn) [chlorogenic acid]
40.9	O=c1cc(-c2ccccc2)oc2cc(O)cc(O)c12 [chrysin]
31.8	O=C(O)C=Cc1ccccc1 [cinnamic acid]
27.2	OCC1OC(Oc2cc(O)cc(C=Cc3ccc(O)cc3)c2)C(O)C(O)C1O (stereo not drawn) [cis-piceid]
30.4	Oc1ccc(/C=C\c2cc(O)cc(O)c2)cc1 [cis-resveratrol]
22.8	COc1cc(C=CCO)ccc1O [coniferyl alcohol]
25.9	COc1cc(C=CC=O)ccc1O [coniferyl aldehyde]
20.1	O=C(C=Cc1ccc(O)c(O)c1)OC1C(O)CC(O)(C(=O)O)CC1O (stereo not drawn) [cryptochlorogenic acid]
38.6	CC(C)c1ccc(C=O)cc1 [cuminaldehyde]
22.1	OCC1OC(Oc2cc3c(O)cc(O)cc3[o+]c2-c2ccc(O)c(O)c2)C(O)C(O)C1O (stereo not drawn) [cyanidin 3 galactoside]
18.4	OCC1OC(Oc2cc3c(OC4OC(CO)C(O)C(O)C4O)cc(O)cc3[o+]c2-c2ccc(O)c(O)c2)C(O)C(O)C1O (stereo not drawn) [cyanidin-3,5-diglucoside]
23.1	Oc1cc(O)c2cc(OC3OCC(O)C(O)C3O)c(-c3ccc(O)c(O)c3)[o+]c2c1 (stereo not drawn) [cyanidin-3-arabinoside]
23.1	CC1OC(OCC2OC(Oc3cc4c(O)cc(O)cc4[o+]c3-c3ccc(O)c(O)c3)C(O)C(O)C2O)C(O)C(O)C1O (stereo not drawn) [cyanidin-3-rutinoside]
28.9	Oc1cc(O)c2cc(O)c(-c3ccc(O)c(O)c3)[o+]c2c1 [cyanidin]
32.5	O=c1c(-c2ccc(O)cc2)coc2cc(O)ccc12 [daidzein]
21.9	CC1OC(OCC2OC(Oc3cc4c(O)cc(O)cc4[o+]c3-c3cc(O)c(O)c(O)c3)C(O)C(O)C2O)C(O)C(O)C1O (stereo not drawn) [delphinidin 3 rutinoside]

LC retention time [min]	Compound
20.9	OCC1OC(Oc2cc3c(O)cc(O)cc3[o+]c2-c2cc(O)c(O)c(O)c2)C(O)C(O)C1O (stereo not drawn) [delphinidin-3-glucoside]
27.1	O=c1cc2oc(-c3cc(O)c(O)c(O)c3)c(O)cc-2c(O)c1 [delphinidin]
27.8	O=C1c2c(O)cc(O)cc2OC(c2ccc(O)cc2)C1O (stereo not drawn) [dihydrokaempferol]
30.2	O=c1oc2c(O)c(O)cc3c(=O)oc4c(O)c(O)cc1c4c23 [ellagic acid]
46.4	Cc1cc(O)c2c(c1)C(=O)c1cc(O)cc(O)c1C2=O [emodin]
24.4	Oc1ccc(C2Oc3cc(O)cc(O)c3CC2O)cc1 (stereo not drawn) [epiafzelechin]
20.5	Oc1cc(O)c2c(c1)OC(c1ccc(O)c(O)c1)C(O)C2 (stereo not drawn) [epicatechin]
22.3	O=C(OC1Cc2c(O)cc(O)cc2OC1c1cc(O)c(O)c(O)c1)c1cc(O)c(O)c(O)c1 (stereo not drawn) [epigallo-catechin gallate]
16.5	Oc1cc(O)c2c(c1)OC(c1cc(O)c(O)c(O)c1)C(O)C2 (stereo not drawn) [epigallocatechin]
31	O=C1CC(c2ccc(O)c(O)c2)Oc2cc(O)cc(O)c21 (stereo not drawn) [eriodictyol]
23	CCOC(=O)c1cc(O)c(O)c(O)c1 [ethyl gallate]
35.5	CCOC(=O)Cc1c[nH]c2ccccc12 [ethyl indole-3-acetate]
38.3	C=CCc1ccc(OC(C)=O)c(OC)c1 [eugenyl acetate]
37.4	COc1ccc(-c2cc(=O)c3c(OC)c(OC)c(OC)cc3o2)cc1O [eupatorin-5-methylether]
19.5	COc1cc(C=CC(=O)OC(C(=O)O)C(O)C(=O)O)ccc1O (stereo not drawn) [fertaric acid]
25.9	COc1cc(/C=C/C(=O)O)ccc1O [ferulic acid]
21.3	Nc1nc2ncc(CNc3ccc(C(=O)NC(CCC(=O)O)C(=O)O)cc3)nc2c(=O)[nH]1 (stereo not drawn) [folic acid]
20.9	COc1cc2ccc(=O)oc2c(OC2OC(CO)C(O)C(O)C2O)c1O (stereo not drawn) [fraxin]
12.7	O=C(O)c1ccco1 [furan-2-carboxylic acid]
41.4	O=c1c(O)c(-c2ccccc2)oc2cc(O)cc(O)c12 [galangin]
8.95	O=C(O)c1cc(O)c(O)c(O)c1 [gallic acid]
44.8	COc1ccc(-c2coc3cc(OC)cc(O)c3c2=O)cc1 [genistein-4,7-dimethylether]
35.1	O=c1c(-c2ccc(O)cc2)coc2cc(O)cc(O)c12 [genistein]
17	O=C(O)c1cc(O)ccc1O [gentisic acid]
51.3	CC(C)=CCCC(C)=CCOC(=O)c1ccccc1 [geranyl benzoate]

Source: the RepoRT retention time repository (doi:10.1007/s11306-011-0298-z)
